Experimental data published in paper PMC12475274, “Harnessing indole scaffolds to identify small-molecule IRE1α inhibitors modulating XBP1 mRNA splicing” (Nature Communications, 2025).
Where “and” joins values, the source holds several entries; their conditions need not be identical. Equal entries are not always repeated. Where two headings read alike, the source gives them in different places.

What was measured:
[1] = molecular target: T1, dephosphorylated IRE1α (547–977) (Homo sapiens, UniProt O75460); assay: FRET-based IRE1α RNase activity assay, dephosphorylated IRE1α; type: biochemical
T1 construct: Human IRE1α kinase and RNase domain (residues 547–977) was subcloned into pLIB plasmid; His tag (with TEV cleavage site) (N, cleaved yes); made in house; host or cells: Sf9 insect cells, baculovirus (Bac-to-Bac)
Protocol: (§1) Human IRE1α kinase and RNase domain (residues 547–977) was subcloned into pLIB plasmid with a His tag and TEV cleavage site, and expressed using Bac-to-Bac expression system. The primers used are listed in Supplementary Table S3. The protein purification was performed following established procedures. Briefly, Sf9 cells were infected with baculovirus and incubated at 27 °C 110 rpm for 72 h. The cells were collected by centrifugation at 4000 × g for 15 min and the cell pellet was resuspended in lysis buffer (50 mM HEPES pH 7.5, 300 mM NaCl, 10% glycerol, 1 mM MgCl2, 1 mM TCEP, 5 mM imidazole), then supplemented with 1:10,000 benzonase (Sigma, E1014), 1 tablet/25 mL […]™ Protease Inhibitor Cocktail tablets (Sigma, S8830) and 1 mM PMSF before lysed by sonication at 4 °C. […] The protein elution was incubated with TEV protease to remove His tag at 4 °C overnight. Then the sample was diluted 1:6 in buffer (50 mM HEPES pH 7.5, 1 mM TCEP, 5% glycerol) and loaded onto a 5 mL pre-packaged Q HP anion exchange column (Cytiva, HiTrap Q HP) pre-equilibrated with QA buffer (50 mM HEPES pH 7.5, 50 mM NaCl, 1 mM TCEP, 5% glycerol). The unphosphorylated and phosphorylated protein was separated by eluting the protein with a very shallow gradient with 0-30% buffer QB (50 mM HEPES pH 7.5, 1 M NaCl, 1 mM TCEP, 5% glycerol) over 80 CV. Different peaks were collected separately and verified by LC-MS. The fully phosphorylated fraction was collected and further purified by size exclusion chromatography (Cytiva, HiLoad 16/600 Superdex 200 pg,) with SEC buffer (25 mM HEPES pH 7.5, 250 mM NaCl, 1 mM TCEP, 10% glycerol) and fractioned as monomeric peak. The rest protein fraction from the Q HP anion exchange column was incubated with Lambda protein phosphatase (New England BioLabs, P0753S) overnight at 4 °C, the dephosphorylation was confirmed by LC-MS. The unphosphorylated protein was further purified by size exclusion chromatography with the SEC buffer described above. The purified phosphorylated (p-IRE1α) and dephosphorylated (IRE1α) protein aliquots were stored at −80 °C for future usage.
The dual-labeled RNA substrate with a FAM at 5’ and the BHQ-1 at 3’ containing the XBP1 sequence (5′FAM-[…]-3′BHQ1) was purchased from Integrated DNA Technologies (IDT). The FRET-based IRE1α RNase activity assay was carried out in reaction buffer containing 20 mM HEPES pH 7.5, 50 mM KOAc, 1 mM MgOAc2, 1 mM DTT, 0.05% v/v TritonX-100, at a total reaction volume of 20 μL in a 384-well black plate (4514, Corning). For unphosphorylated IRE1α (IRE1α), a final concentration of 40 nM IRE1α protein and 100 nM RNA substrate was used. For phosphorylated IRE1 (p-IRE1α), a final concentration of 4 nM p-IRE1α protein and 200 nM RNA substrate was used. The indicated compound and IRE1α protein were incubated for 30 min at room temperature before the substrate was added to the reaction. The plate was then kinetically read over one hour at room temperature using a TECAN Spark plate reader. The measurement was carried out using the fluorescence top reading mode at the excitation wavelength of 485 nm and the emission wavelength of 535 nm with a 10 nm excitation and emission bandwidth. The linear part of the reaction curve was adopted and fitted with sample linear regression to obtain the slope, and the slope was adopted to reflect the reaction rate. The inhibition % was calculated by using the equation: inhibition% = 100 × (slope of DMSO control – slope of the sample)/(slope of DMSO control – slope of blank control), DMSO control: DMSO with protein and RNA substrate; Blank control: DMSO with RNA substrate. The IC50 values were calculated using the concentration-response model in GraphPad Prism 9. […]

[2] = molecular target: T2, phosphorylated IRE1α (p-IRE1α) (Homo sapiens, UniProt O75460); assay: FRET-based IRE1α RNase activity assay, phosphorylated IRE1α; type: biochemical
T2 construct: Human IRE1α kinase and RNase domain (residues 547–977) was subcloned into pLIB plasmid; His tag (with TEV cleavage site) (N, cleaved yes); made in house; host or cells: Sf9 insect cells, baculovirus (Bac-to-Bac)
Protocol: as §1
The dual-labeled RNA substrate with a FAM at 5’ and the BHQ-1 at 3’ containing the XBP1 sequence (5′FAM-[…]-3′BHQ1) was purchased from Integrated DNA Technologies (IDT). The FRET-based IRE1α RNase activity assay was carried out in reaction buffer containing 20 mM HEPES pH 7.5, 50 mM KOAc, 1 mM MgOAc2, 1 mM DTT, 0.05% v/v TritonX-100, at a total reaction volume of 20 μL in a 384-well black plate (4514, Corning). For unphosphorylated IRE1α (IRE1α), a final concentration of 40 nM IRE1α protein and 100 nM RNA substrate was used. For phosphorylated IRE1 (p-IRE1α), a final concentration of 4 nM p-IRE1α protein and 200 nM RNA substrate was used. The indicated compound and IRE1α protein were incubated for 30 min at room temperature before the substrate was added to the reaction. The plate was then kinetically read over one hour at room temperature using a TECAN Spark plate reader. The measurement was carried out using the fluorescence top reading mode at the excitation wavelength of 485 nm and the emission wavelength of 535 nm with a 10 nm excitation and emission bandwidth. The linear part of the reaction curve was adopted and fitted with sample linear regression to obtain the slope, and the slope was adopted to reflect the reaction rate. The inhibition % was calculated by using the equation: inhibition% = 100 × (slope of DMSO control – slope of the sample)/(slope of DMSO control – slope of blank control), DMSO control: DMSO with protein and RNA substrate; Blank control: DMSO with RNA substrate. The IC50 values were calculated using the concentration-response model in GraphPad Prism 9.

[3] = FRET assay, RNase activity, mean (± SEM), read-out: IRE1α IC50
[4] = FRET assay, source data, unit from Fig. 3 / sheet Fig. 2b, read-out: IRE1a IC50, individual replicates (n1-n4)
[5] = FRET assay, RNase activity, mean (± SEM), read-out: p-IRE1α IC50
[6] = FRET assay, source data, unit from Fig. 3, read-out: p-IRE1a IC50, individual replicates (n1-n4)

T2 sequence (O75460 547-977): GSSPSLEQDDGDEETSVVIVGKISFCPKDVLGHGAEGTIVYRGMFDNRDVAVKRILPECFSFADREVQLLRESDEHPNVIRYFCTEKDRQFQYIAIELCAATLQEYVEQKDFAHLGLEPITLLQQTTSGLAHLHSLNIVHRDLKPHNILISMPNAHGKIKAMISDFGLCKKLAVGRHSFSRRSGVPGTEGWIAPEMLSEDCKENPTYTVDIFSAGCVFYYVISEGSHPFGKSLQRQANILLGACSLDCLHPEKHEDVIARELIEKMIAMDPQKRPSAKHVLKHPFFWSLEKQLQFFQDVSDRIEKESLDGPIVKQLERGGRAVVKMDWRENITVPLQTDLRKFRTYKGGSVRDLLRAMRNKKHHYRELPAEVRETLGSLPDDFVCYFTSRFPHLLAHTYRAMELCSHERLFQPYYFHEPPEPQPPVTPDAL
T1 sequence (O75460 547-977): as above

Row | IC50 [1, 3] | IC50 [1, 4] | IC50 [2, 5] | IC50 [2, 6] | SMILES | other results
1 |  |  |  |  | COc1ccc2c(c1)c(Cc1ccccc1)c(C)n2C(=O)c1ccc(Cl)cc1 [cms09] | inhibition at 50 µM ([1]; FRET assay at 50 μM, mean (± SEM), read-out: IRE1α inhibition%): < 30%; inhibition at 50 µM ([2]; FRET assay at 50 μM, mean (± SEM), read-out: p-IRE1α inhibition%): < 30%
2 | 570 ± 360 nM | 524 nM and 238 nM and 957 nM | 940 nM | 986 nM and 798 nM and 1020 nM | Cc1c(CCC(=O)O)c2cc(OC(F)(F)F)ccc2n1C(=O)c1ccccc1 [IA148] | reduction in IRE1α inhibition relative to IA64 ([1]; FRET IC50): ~ 19 fold
3 | 1460 nM | 869 nM and 1330 nM and 2170 nM | 1960 nM | 2090 nM and 2100 nM and 1670 nM | COc1ccc2c(c1)c(CCC(=O)O)c(C)n2C(=O)c1ccc(Br)cc1 [IA02] | 
4 | 320 nM | 473 nM and 234 nM and 244 nM | 730 nM | 505 nM and 1390 nM and 290 nM | COc1ccc2c(c1)c(CCC(=O)O)c(C)n2C(=O)c1ccc(N(C)C)cc1 [IA70] | 
5 | 4730 nM | 3280 nM and 6180 nM | 15100 nM | 15800 nM and 14400 nM | CC(=O)c1ccc(-c2ccc3c(c2)c(CCC(=O)O)c(C)n3C(=O)c2ccccc2)s1 [IA162] | 
6 | 2040 nM | 1900 nM and 2230 nM and 1980 nM | 5610 nM and 5600 nM | 5640 nM and 7330 nM and 3850 nM | COc1ccc2c(c1)c(CCC(=O)O)c(C)n2C(=O)C1CCOCC1 [IA81] | 
7 |  |  |  |  | COc1ccc2c(c1)c(CC(=O)O)c(C)n2C(=O)c1ccc(N(C)C)cc1 [idm06] | Inhibiton% @ 50 Μm ([1]; IRE1a, @ 50 Μm, individual replicates (n1-n3), Supplementary Fig. 2a): 31.43% and 32.06% and 32.96% and 41.19% and 38.68%; Inhibiton% @ 50 Μm, mean ([1]; IRE1a, @ 50 Μm, mean, Supplementary Fig. 2a): 35.27%; Inhibiton% @ 50 Μm ([2]; p-IRE1a, @ 50 Μm, individual replicates (n1-n3), Supplementary Fig. 2a): 36.04% and 36.79% and 33.53% and 36.40% and 23.29% and 29.46%; Inhibiton% @ 50 Μm, mean ([2]; p-IRE1a, @ 50 Μm, mean, Supplementary Fig. 2a): 32.58%
8 |  |  |  |  | Cc1c(CCC(=O)O)c2cc(F)ccc2n1C(=O)c1cccc(C#N)c1 [IA47] | IC50 ([1]; IRE1a, individual replicates (n1-n4), Supplementary Fig. 2b, 2c, read-out: IC50): 4700 nM and 983 nM and 3620 nM and 1970 nM; IC50 ([1]; IRE1a, mean, Supplementary Fig. 2b, 2c, read-out: IC50, mean): 2820 nM; IC50 ([2]; p-IRE1a, individual replicates (n1-n3), Supplementary Fig. 2b, 2c, read-out: IC50): 5260 nM and 7800 nM and 3640 nM; IC50 ([2]; p-IRE1a, mean, Supplementary Fig. 2b, 2c, read-out: IC50, mean): 5570 nM
